What was measured:
human RARβ2 receptors = target: T1, human RARβ2 receptors (Homo sapiens, UniProt P10826); settings: as described in Lund et al. (2005, J. Med. Chem., 48, 7517-7519); cited from earlier work
T1 sequence (P10826 1-448 isoform P10826-2): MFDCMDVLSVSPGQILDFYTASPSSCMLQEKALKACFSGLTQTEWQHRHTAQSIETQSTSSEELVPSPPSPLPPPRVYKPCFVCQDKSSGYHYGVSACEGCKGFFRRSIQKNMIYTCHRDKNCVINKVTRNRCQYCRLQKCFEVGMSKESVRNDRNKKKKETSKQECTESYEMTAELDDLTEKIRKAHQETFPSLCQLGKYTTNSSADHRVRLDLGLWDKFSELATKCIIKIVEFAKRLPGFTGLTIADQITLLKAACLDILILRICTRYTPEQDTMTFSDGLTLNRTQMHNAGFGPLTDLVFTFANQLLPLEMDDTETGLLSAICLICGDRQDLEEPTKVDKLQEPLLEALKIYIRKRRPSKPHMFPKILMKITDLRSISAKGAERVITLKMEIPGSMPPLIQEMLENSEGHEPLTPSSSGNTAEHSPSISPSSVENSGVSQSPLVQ

ethanol-fed mice [1] = assay: Plasma AST and ALT activity (liver injury markers) in liquid ethanol diet model; type: in vivo, mouse (male C57BL/6J); settings: EtOH-AC261 vs EtOH mice; 10 mg/kg/day, 3 weeks
From the text: (§1) Liquid Ethanol Diet. Male C57BL/6J mice (8-9-weeks-old) (n=30) were purchased from Jackson Laboratory. Animals were housed in standard cages with 2-mice per cage and fed a standard vivarium chow (rodent diet #2014, Harlan-Teklad, Madison, WI). After acclimation to liquid feeding, mice were switched to the Lieber-DeCarli-liquid alcohol diet for 3 weeks using the following groups: 1) Control diet-fed mice (aka Pair-fed (PF), n=6), 2) Pair-fed mice+RARβ2 specific agonist AC261066 (Tocris #4046), at 10 mg/kg/day [Pair-fed+AC261, (n=4)] (PF-AC), 3) Alcohol-treated (5% ethanol (EtOH) v/v plus vehicle [0.1% DMSO], n=10) (EtOH), and iv) 4) EtOH+AC261, [10 mg/kg/day], n=10)] (EtOH-AC).

CYP2E1 = assay: Hepatic CYP2E1 protein by western blot and IHC in liquid ethanol diet model; type: in vivo, mouse (male C57BL/6J); settings: EtOH-AC261066 vs EtOH mice
From the text: as §1
(§2) AC261066 and ethanol modulate centrilobular protein expression of ALDH1A1, CYP2E1, and Oxidative Stress. ALDH1A1 is one of the rate-limiting enzymes in the oxidation of retinaldehyde to RA and a key contributor to hepatic RA synthesis, as mice lacking ALDH1A1 show reduced hepatic levels of RA. […] Therefore, hepatic protein levels of ALDH1A1 were measured next, as it was the only ALDH1A isoform to increase in EtOH compared to PF mice. […] Therefore, given that high levels of ALDH1A1 were specifically detected only in zone 2-3, centrilobular regions, hepatic CYP2E1 protein levels were next measured by western blot and IHC, and by IHC, 4-HNE, as an indirect readout of oxidative stress. […]

[2] = Tolerability and general observations (food intake, body weight, blood alcohol, hepatic drug level, hepatotoxicity, fibrosis) in liquid ethanol diet study; type: in vivo, mouse (male C57BL/6J)
From the text: as §1

ALDH1A1 = assay: Hepatic ALDH1A1 protein by western blot and IHC in liquid ethanol diet model; type: in vivo, mouse (male C57BL/6J); settings: EtOH-AC vs EtOH mice
From the text: as §1, §2

ethanol-fed mice [3] = assay: Hepatic steatosis (histopathology, Oil Red O, hepatic triglycerides) in Lieber-DeCarli liquid ethanol diet model of early ALD; type: in vivo, mouse (male C57BL/6J); settings: EtOH-AC261 vs EtOH mice, 10 mg/kg/day, 3 weeks
From the text: as §1

[4] = system: genes involved in de novo lipogenesis and fatty acid β-oxidation; assay: RNA-seq of hepatic transcripts of lipid metabolism genes in liquid ethanol diet model; type: in vivo, mouse (male C57BL/6J)
From the text: as §1
The mechanism by which AC261066 functions in lipid metabolism, including de novo lipogenesis and fatty acid β-oxidation in the liver, was assessed.

4-HNE = assay: Hepatic 4-HNE IHC (indirect readout of oxidative stress) in liquid ethanol diet model; type: in vivo, mouse (male C57BL/6J); settings: EtOH-AC261 vs EtOH mice
From the text: as §1, §2

[5] = 5% ETOH-fed mice with vs without AC261066
[6] = 5% ETOH-fed plus AC261066 vs ETOH-fed mice without AC261066

CCCCOCCOc1nc(-c2ccc(C(=O)O)c(F)c2)sc1C [AC261066]
isoform selectivity of agonism at human RARβ2 receptors (human RARβ2 receptors): highly isoform-selective agonists
reduction in plasma activity of ALT (ethanol-fed mice [1]): ~30%
reduction in plasma activity of AST (ethanol-fed mice [1]): ~30%
reduction in zone 2-3 centrilobular CYP2E1 protein levels (CYP2E1; IHC): ~39%
reduction in hepatic CYP2E1 protein levels (CYP2E1; total protein): approximately 31%
changes to hepatic steatosis, triglyceride levels, fibrosis, or liver injury ([2]; PF+AC261 mice (pair-fed, no ethanol), 10 mg/kg/day, 3 weeks): No evidence was found of changes
daily food intake and body weights ([2]; all groups, entire length of the study): no group differences
hepatoxicity or fibrosis ([2]; concomitant administration of AC261 with EtOH, 3 weeks): no evidence
effect of EtOH on hepatic AC261 levels ([2]; concomitant administration with EtOH, 3 weeks): did not adversely impact
reduction in zone 2-3, centrilobular ALDH1A1 protein immunoreactivity (ALDH1A1; IHC): 40%
reduction in ALDH1A1 total protein (ALDH1A1; western blot): 32%
reduction in Oil red O lipid-staining (ethanol-fed mice [3]): 41%
reduction in hepatic triglycerides (ethanol-fed mice [3]): 35%
reduction in macrovesicular steatosis (ethanol-fed mice [3]; 5% EtOH diet): 72%
reduction in microvesicular steatosis (ethanol-fed mice [3]; 5% EtOH diet): 82%
EtOH-induced increase in hepatic Fasn mRNA level [4, 5]: eliminated or attenuated
EtOH-induced increase in hepatic Mogat1 mRNA level [4, 5]: eliminated or attenuated
EtOH-induced increase in hepatic Pparg mRNA level [4, 5]: eliminated or attenuated
hepatic CPT1-α transcripts [4, 6]: increased
hepatic Ppara transcripts [4, 6]: increased
decrease in hepatic levels of 4-HNE (4-HNE): 36%
decrease in hepatic levels of 4-HNE (first value) (4-HNE): 33%

CCCCCCCCc1ccc(-c2ccc(C(=O)O)cc2)cc1 [AC55649]
isoform selectivity of agonism at human RARβ2 receptors (human RARβ2 receptors): highly isoform-selective agonists

From US20240390334A1, “COMPOSITIONS AND METHODS FOR MITIGATING ALCOHOL LIVER DISEASE” (Research Foundation of the City University of New York, priority 2021, published 2024)
